Laboratory results published in US20220062258A1, “Heterocyclic derivatives” (Merck Patent GmbH, priority 2019, published 2022).

Each compound was assayed on HUVEC primary endothelial cells (assay: HUVEC proliferation assay (CyQUANT Direct)). Settings: Homo sapiens, 72 h, 3 days incubation.
Format: cell-based
Method: HUVEC Proliferation Assay
Proliferation of HUVEC primary endothelial cells was used as cell-based mechanistical assay.^25 Applying the CyQUANT@ Direct Cell Proliferation Assay (Invitrogen C35011) which is based on a cell-permeant fluorescent DNA-binding dye, DNA content is used as a direct measure for cell number. Pooled HUVEC cells (Promocell C-12203) are cultivated in the medium supplied by Promocell (Cat No C-22020) for maximum 4 passages. For the assay 500 cells/well are seeded into black 384-well culture plates with clear bottom in 70 μl culture medium and incubated for 6 hours at 37° C., 5% CO2. 10 μl prediluted test compounds are added and cells incubated for 3 days at 37° C., 5% CO2 before measurement of DNA content. CyQUANT detection reagent is prepared according to the manufacturers protocol, 20 μl/well added and incubated at 37° C., 5% CO2 for at least 1 h before measurement of fluorescence at Envision multimode reader (Perkin-Elmer, Waltham) with excitation 480 nm and emission 535 nm (bottom read mode). The assay is performed as dose response with 10 compound dilutions. Inhibitory values (IC50) were determined using the program ASSAY ANALYZER® from GeneData (Basel, Switzerland).
Compound `O=C1CCC(N2C(=O)c3ccc(C#CCOCCOCCOCCOCCNC(=O)c4cc5cc(N6CC[C@](O)(C(=O)NCc7cc(F)cc(F)c7)C6=O)ccc5[nH]4)cc3C2=O)C(=O)N1` (stereo partly drawn) [Compound A43, 5-[(3S)-3-{[(3,5-difluorophenyl)methyl]carbamoyl}-3-hydroxy-2-oxopyrrolidin-1-yl]-N-{15-[2-(2,6-dioxopiperidin-3-yl)-1,3-dioxo-2,3-dihydro-1H-isoindol-5-yl]-3,6,9,12-tetraoxapentadec-14-yn-1-yl}-1H-indole-2-carboxamide] has an IC50 of 7.1 µM. `CN(CCOCCOCCOCCOCCN(C)c1ccc2c(c1)C(=O)N(C1CCC(=O)NC1=O)C2=O)C(=O)c1cc2cc(N3CC[C@](O)(C(=O)NCc4cc(F)cc(F)c4)C3=O)ccc2[nH]1` (stereo partly drawn) [Compound A47, 5-[(3S)-3-{[(3,5-difluorophenyl)methyl]carbamoyl}-3-hydroxy-2-oxopyrrolidin-1-yl]-N-{2-[2-(2,6-dioxopiperidin-3-yl)-1,3-dioxo-2,3-dihydro-1H-isoindol-5-yl]-5,8,11,14-tetraoxa-2-azahexadecan-16-yl}-N-methyl-1H-indole-2-carboxamide] was tested, and the IC50 was 0.24 µM. In the case of `O=C1CCC(N2C(=O)c3cccc(C#CCOCCOCCOCCOCCOCCNC(=O)c4cc5cc(N6CC[C@](O)(C(=O)NCc7cc(F)cc(F)c7)C6=O)ccc5[nH]4)c3C2=O)C(=O)N1` (stereo partly drawn) [Compound A46, 5-[(3S)-3-{[(3,5-difluorophenyl)methyl]carbamoyl}-3-hydroxy-2-oxopyrrolidin-1-yl]-N-{18-[2-(2,6-dioxopiperidin-3-yl)-1,3-dioxo-2,3-dihydro-1H-isoindol-4-yl]-3,6,9,12,15-pentaoxaoctadec-17-yn-1-yl}-1H-indole-2-carboxamide], the IC50 is reported as > 30 µM. For `CN(CCOCCOCCOCCOCCOCCN(C)c1cccc2c1C(=O)N(C1CCC(=O)NC1=O)C2=O)C(=O)c1cc2cc(N3CC[C@](O)(C(=O)NCc4cc(F)cc(F)c4)C3=O)ccc2[nH]1` (stereo partly drawn) [Compound A45, 5-[(3S)-3-{[(3,5-difluorophenyl)methyl]carbamoyl}-3-hydroxy-2-oxopyrrolidin-1-yl]-N-{2-[2-(2,6-dioxopiperidin-3-yl)-1,3-dioxo-2,3-dihydro-1H-isoindol-4-yl]-5,8,11,14,17-pentaoxa-2-azanonadecan-19-yl}-N-methyl-1H-indole-2-carboxamide], the IC50 was 0.61 µM. Work on `O=C1CCC(N2C(=O)c3ccc(NCCOCCOCCOCCN4CCN(C(=O)c5cc6cc(N7CC[C@](O)(C(=O)NCc8cc(F)cc(F)c8)C7=O)ccc6[nH]5)CC4)cc3C2=O)C(=O)N1` (stereo partly drawn) [Compound A48, (3S)—N-[(3,5-difluorophenyl)methyl]-1-{2-[4-(2-{2-[2-(2-{[2-(2,6-dioxopiperidin-3-yl)-1,3-dioxo-2,3-dihydro-1H-isoindol-5-yl]amino}ethoxy)ethoxy]ethoxy}ethyl)piperazine-1-carbonyl]-1H-indol-5-yl}-3-hydroxy-2-oxopyrrolidine-3-carboxamide] yielded an IC50 of 0.085 µM. `O=C1CCC(N2C(=O)c3ccc(NCCCCOCCCCOCCCCNC(=O)c4cc5cc(N6CC[C@](O)(C(=O)NCc7cc(F)cc(F)c7)C6=O)ccc5[nH]4)cc3C2=O)C(=O)N1` (stereo partly drawn) [Compound A51, 5-[(3S)-3-{[(3,5-difluorophenyl)methyl]carbamoyl}-3-hydroxy-2-oxopyrrolidin-1-yl]-N-{4-[4-(4-{[2-(2,6-dioxopiperidin-3-yl)-1,3-dioxo-2,3-dihydro-1H-isoindol-5-yl]amino}butoxy)butoxy]butyl}-1H-indole-2-carboxamide] showed an IC50 of 0.4 µM. Work on `O=C1CCC(N2C(=O)c3ccc(NCCOCCOCCOCCNC(=O)c4cc5cc(N6CC[C@](O)(C(=O)NCc7cc(F)cc(F)c7)C6=O)ccc5[nH]4)cc3C2=O)C(=O)N1` (stereo partly drawn) [Compound A42, 5-[(3S)-3-{[(3,5-difluorophenyl)methyl]carbamoyl}-3-hydroxy-2-oxopyrrolidin-1-yl]-N-(2-{2-[2-(2-{[2-(2,6-dioxopiperidin-3-yl)-1,3-dioxo-2,3-dihydro-1H-isoindol-5-yl]amino}ethoxy)ethoxy]ethoxy}ethyl)-1H-indole-2-carboxamide] yielded an IC50 of 4.6 µM. `O=C1CCC(N2C(=O)c3ccc(OCCOCCOCCOCCOCCNC(=O)c4cc5cc(N6CC[C@](O)(C(=O)NCc7cc(F)cc(F)c7)C6=O)ccc5[nH]4)cc3C2=O)C(=O)N1` (stereo partly drawn) [Compound A52, 5-[(3S)-3-{[(3,5-difluorophenyl)methyl]carbamoyl}-3-hydroxy-2-oxopyrrolidin-1-yl]-N-(14-{[2-(2,6-dioxopiperidin-3-yl)-1,3-dioxo-2,3-dihydro-1H-isoindol-5-yl]oxy}-3,6,9,12-tetraoxatetradecan-1-yl)-1H-indole-2-carboxamide] showed an IC50 of 4.9 µM. Work on `O=C1CCC(N2C(=O)c3cccc(NCCOCCOCCOCCOCCNC(=O)c4cc5cc(N6CC[C@](O)(C(=O)NCc7cc(F)cc(F)c7)C6=O)ccc5[nH]4)c3C2=O)C(=O)N1` (stereo partly drawn) [Compound A44, 5-[(3S)-3-{[(3,5-difluorophenyl)methyl]carbamoyl}-3-hydroxy-2-oxopyrrolidin-1-yl]-N-(14-{[2-(2,6-dioxopiperidin-3-yl)-1,3-dioxo-2,3-dihydro-1H-isoindol-4-yl]amino}-3,6,9,12-tetraoxatetradecan-1-yl)-1H-indole-2-carboxamide] yielded an IC50 of 7 µM. `O=C1CCC(N2C(=O)c3ccc(NC(=O)CCCCCCCCCCCCCNC(=O)c4cc5cc(N6CC[C@](O)(C(=O)NCc7cc(F)cc(F)c7)C6=O)ccc5[nH]4)cc3C2=O)C(=O)N1` (stereo partly drawn) [Compound A50, (3S)—N-[(3,5-difluorophenyl)methyl]-1-{2-[(13-{[2-(2,6-dioxopiperidin-3-yl)-1,3-dioxo-2,3-dihydro-1H-isoindol-5-yl]carbamoyl}tridecyl)carbamoyl]-1H-indol-5-yl}-3-hydroxy-2-oxopyrrolidine-3-carboxamide] was tested, and the IC50 was 0.18 µM. With `O=C1CCC(N2C(=O)c3cccc(NCCOCCOCCOCCOCCN4CCN(C(=O)c5cc6cc(N7CC[C@](O)(C(=O)NCc8cc(F)cc(F)c8)C7=O)ccc6[nH]5)CC4)c3C2=O)C(=O)N1` (stereo partly drawn) [Compound A56, (3S)—N-[(3,5-difluorophenyl)methyl]-1-{2-[4-(14-{[2-(2,6-dioxopiperidin-3-yl)-1,3-dioxo-2,3-dihydro-1H-isoindol-4-yl]amino}-3,6,9,12-tetraoxatetradecan-1-yl)piperazine-1-carbonyl]-1H-indol-5-yl}-3-hydroxy-2-oxopyrrolidine-3-carboxamide] the IC50 was 0.12 µM. In the case of `O=C1CCC(N2C(=O)c3cccc(NC(=O)CCCCCCCCCCCCCCCCNC(=O)c4cc5cc(N6CC[C@](O)(C(=O)NCc7cc(F)cc(F)c7)C6=O)ccc5[nH]4)c3C2=O)C(=O)N1` (stereo partly drawn) [Compound A57, (3S)—N-[(3,5-difluorophenyl)methyl]-1-{2-[(16-{[2-(2,6-dioxopiperidin-3-yl)-1,3-dioxo-2,3-dihydro-1H-isoindol-4-yl]carbamoyl}hexadecyl)carbamoyl]-1H-indol-5-yl}-3-hydroxy-2-oxopyrrolidine-3-carboxamide], the IC50 is reported as > 30 µM. Work on `O=C1CCC(N2C(=O)c3ccc(NCCOCCOCCN4CCC5(CC4)CCN(C(=O)c4cc6cc(N7CC[C@](O)(C(=O)NCc8cc(F)cc(F)c8)C7=O)ccc6[nH]4)CC5)cc3C2=O)C(=O)N1` (stereo partly drawn) [Compound A49, (3S)—N-[(3,5-difluorophenyl)methyl]-1-[2-(9-{2-[2-(2-{[2-(2,6-dioxopiperidin-3-yl)-1,3-dioxo-2,3-dihydro-1H-isoindol-5-yl]amino}ethoxy)ethoxy]ethyl}-3,9-diazaspiro[5.5]undecane-3-carbonyl)-1H-indol-5-yl]-3-hydroxy-2-oxopyrrolidine-3-carboxamide] yielded an IC50 of 0.051 µM. `O=C1CCC(N2C(=O)c3ccc(NC(=O)COCCOCCOCCOCCOCCNC(=O)c4cc5cc(N6CC[C@](O)(C(=O)NCc7cc(F)cc(F)c7)C6=O)ccc5[nH]4)cc3C2=O)C(=O)N1` (stereo partly drawn) [Compound A55, (3S)—N-[(3,5-difluorophenyl)methyl]-1-{2-[(1-{[2-(2,6-dioxopiperidin-3-yl)-1,3-dioxo-2,3-dihydro-1H-isoindol-5-yl]carbamoyl}-2,5,8,11,14-pentaoxahexadecan-16-yl)carbamoyl]-1H-indol-5-yl}-3-hydroxy-2-oxopyrrolidine-3-carboxamide] was tested, and the IC50 was > 30 µM.
